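Values below derive from 48-hour exposures of cells grown in 96-well plates, with endpoints linearly interpolated between the two concentrations bracketing the appropriate inhibition level. GI50: concentration for 50% inhibition of growth. TGI is the concentration that stops growth completely.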
Experiments:
Assay in all cases: NCI anticancer screen, dose series, 48 h
A498 renal = system: A498 renal
LOX IMVI melanoma = system: LOX IMVI melanoma
SK-OV-3 ovarian = system: SK-OV-3 ovarian
SF-268 CNS = system: SF-268 CNS
COLO 205 colon = system: COLO 205 colon
BT-549 breast = system: BT-549 breast
SR leukemia = system: SR leukemia
CAKI-1 renal = system: CAKI-1 renal
PC-3 prostate = system: PC-3 prostate
RXF 393 renal = system: RXF 393 renal
M14 melanoma = system: M14 melanoma
U251 CNS = system: U251 CNS
HCT-116 colon = system: HCT-116 colon
NCI-H23 lung = system: NCI-H23 lung
786-0 renal = system: 786-0 renal
MDA-MB-231 breast = system: MDA-MB-231 breast
OVCAR-3 ovarian = system: OVCAR-3 ovarian
SNB-19 CNS = system: SNB-19 CNS
SF-295 CNS = system: SF-295 CNS
MOLT-4 leukemia = system: MOLT-4 leukemia
UO-31 renal = system: UO-31 renal
OVCAR-8 ovarian = system: OVCAR-8 ovarian
DU-145 prostate = system: DU-145 prostate
NCI-H522 lung = system: NCI-H522 lung
SN12C renal = system: SN12C renal
RPMI-8226 leukemia = system: RPMI-8226 leukemia
K-562 leukemia = system: K-562 leukemia
CCRF-CEM leukemia = system: CCRF-CEM leukemia
OVCAR-5 ovarian = system: OVCAR-5 ovarian
IGROV1 ovarian = system: IGROV1 ovarian
OVCAR-4 ovarian = system: OVCAR-4 ovarian
HCC-2998 colon = system: HCC-2998 colon
MDA-MB-435 = system: MDA-MB-435
KM12 colon = system: KM12 colon
MCF7 breast = system: MCF7 breast
EKVX NSCLC = system: EKVX NSCLC
UACC-62 melanoma = system: UACC-62 melanoma
NCI/ADR-RES ovarian = system: NCI/ADR-RES ovarian
TK-10 renal = system: TK-10 renal
SK-MEL-5 melanoma = system: SK-MEL-5 melanoma
SF-539 CNS = system: SF-539 CNS
SW-620 colon = system: SW-620 colon
HT29 colon = system: HT29 colon
NCI-H460 lung = system: NCI-H460 lung
HOP-62 NSCLC = system: HOP-62 NSCLC
ACHN renal = system: ACHN renal
A549 NSCLC = system: A549 NSCLC
SK-MEL-2 melanoma = system: SK-MEL-2 melanoma
HOP-92 NSCLC = system: HOP-92 NSCLC
NCI-H226 lung = system: NCI-H226 lung
HCT-15 colon = system: HCT-15 colon
SK-MEL-28 melanoma = system: SK-MEL-28 melanoma
HL-60(TB) leukemia = system: HL-60(TB) leukemia
HS 578T breast = system: HS 578T breast
SNB-75 CNS = system: SNB-75 CNS
UACC-257 melanoma = system: UACC-257 melanoma

CCCn1cnc2c(c1=N)C(c1ccc(F)cc1)c1sc3c(CC)cccc3c1O2 (stereo unspecified)
GI50 (A498 renal): 79.9 nM
TGI (A498 renal): 1040 nM
GI50 (LOX IMVI melanoma): 40.4 nM
TGI (LOX IMVI melanoma): 31.3 µM
GI50 (SK-OV-3 ovarian): 1210 nM
TGI (SK-OV-3 ovarian): 35 µM
GI50 (SF-268 CNS): 241 nM
TGI (SF-268 CNS): > 100 µM
GI50 (COLO 205 colon): 354 nM
TGI (COLO 205 colon): 1950 nM
GI50 (BT-549 breast): 1990 nM
TGI (BT-549 breast): 19.1 µM
GI50 (SR leukemia): 117 nM
TGI (SR leukemia): > 42.3 µM
GI50 (CAKI-1 renal): 62.1 nM
TGI (CAKI-1 renal): 18.3 µM
GI50 (PC-3 prostate): 79.8 nM
TGI (PC-3 prostate): > 51.4 µM
GI50 (RXF 393 renal): 29.4 nM
TGI (RXF 393 renal): 130 nM
GI50 (M14 melanoma): 182 nM
TGI (M14 melanoma): 33.6 µM
GI50 (U251 CNS): 273 nM
TGI (U251 CNS): > 40.6 µM
GI50 (HCT-116 colon): 263 nM
TGI (HCT-116 colon): 4.77 µM
GI50 (NCI-H23 lung): 138 nM
TGI (NCI-H23 lung): 19.3 µM
GI50 (786-0 renal): 443 nM
TGI (786-0 renal): > 89.2 µM
GI50 (MDA-MB-231 breast): 325 nM
TGI (MDA-MB-231 breast): > 62.3 µM
GI50 (OVCAR-3 ovarian): 68 nM
TGI (OVCAR-3 ovarian): 7.68 µM
GI50 (SNB-19 CNS): 273 nM
TGI (SNB-19 CNS): 49.4 µM
GI50 (SF-295 CNS): 47.8 nM
TGI (SF-295 CNS): > 47.9 µM
GI50 (MOLT-4 leukemia): 434 nM
TGI (MOLT-4 leukemia): > 100 µM
GI50 (UO-31 renal): 81.3 nM
TGI (UO-31 renal): > 100 µM
GI50 (OVCAR-8 ovarian): 434 nM
TGI (OVCAR-8 ovarian): > 100 µM
GI50 (DU-145 prostate): 309 nM
TGI (DU-145 prostate): 15.3 µM
GI50 (NCI-H522 lung): 35.9 nM
TGI (NCI-H522 lung): 8.08 µM
GI50 (SN12C renal): 398 nM
TGI (SN12C renal): 22.5 µM
GI50 (RPMI-8226 leukemia): 200 nM
TGI (RPMI-8226 leukemia): > 22.9 µM
GI50 (K-562 leukemia): 58.3 nM
TGI (K-562 leukemia): > 100 µM
GI50 (CCRF-CEM leukemia): 314 nM
TGI (CCRF-CEM leukemia): > 67.9 µM
GI50 (OVCAR-5 ovarian): 493 nM
TGI (OVCAR-5 ovarian): > 100 µM
GI50 (IGROV1 ovarian): 176 nM
TGI (IGROV1 ovarian): 24 µM
GI50 (OVCAR-4 ovarian): 336 nM
TGI (OVCAR-4 ovarian): > 100 µM
GI50 (HCC-2998 colon): 337 nM
TGI (HCC-2998 colon): 38.7 µM
GI50 (MDA-MB-435): 23.9 nM
TGI (MDA-MB-435): 60 nM
GI50 (KM12 colon): 275 nM
TGI (KM12 colon): > 42.3 µM
GI50 (MCF7 breast): 24.7 nM
TGI (MCF7 breast): > 100 µM
GI50 (EKVX NSCLC): 481 nM
TGI (EKVX NSCLC): > 100 µM
GI50 (UACC-62 melanoma): 38 nM
TGI (UACC-62 melanoma): 29 µM
GI50 (NCI/ADR-RES ovarian): 50.1 nM
TGI (NCI/ADR-RES ovarian): 26.4 µM
GI50 (TK-10 renal): 19.4 µM
TGI (TK-10 renal): > 100 µM
GI50 (SK-MEL-5 melanoma): 99.8 nM
TGI (SK-MEL-5 melanoma): 1200 nM
GI50 (SF-539 CNS): 94.9 nM
TGI (SF-539 CNS): 815 nM
GI50 (SW-620 colon): 237 nM
TGI (SW-620 colon): > 100 µM
GI50 (HT29 colon): 302 nM
TGI (HT29 colon): 27.3 µM
GI50 (NCI-H460 lung): 211 nM
TGI (NCI-H460 lung): 13.9 µM
GI50 (HOP-62 NSCLC): 423 nM
TGI (HOP-62 NSCLC): 29.7 µM
GI50 (ACHN renal): 133 nM
TGI (ACHN renal): 49.9 µM
GI50 (A549 NSCLC): 236 nM
TGI (A549 NSCLC): > 90.7 µM
GI50 (SK-MEL-2 melanoma): 7.57 µM
TGI (SK-MEL-2 melanoma): > 100 µM
GI50 (HOP-92 NSCLC): 53.8 nM
TGI (HOP-92 NSCLC): 4.19 µM
GI50 (NCI-H226 lung): 395 nM
GI50 (HCT-15 colon): 179 nM
TGI (HCT-15 colon): > 100 µM
GI50 (SK-MEL-28 melanoma): 8.9 µM
TGI (SK-MEL-28 melanoma): > 100 µM
GI50 (HL-60(TB) leukemia): 243 nM
TGI (HL-60(TB) leukemia): 1080 nM
GI50 (HS 578T breast): 86.4 nM
TGI (HS 578T breast): > 88 µM
GI50 (SNB-75 CNS): 35.3 nM
TGI (SNB-75 CNS): 36.5 µM
GI50 (UACC-257 melanoma): 27.5 µM
TGI (UACC-257 melanoma): > 100 µM
